According to patent publication US20220056018A1, “SREBP INHIBITORS COMPRISING A THIOPHENE CENTRAL RING” (Capulus Therapeutics, LLC, priority 2019, published 2022):

Experiments:
[1] = Stability in mouse liver microsomes; assay type: in vitro ADME
Description: (§1) Compounds were evaluated for stability in human liver microsomes. A 10 mM stock solution of the compound being evaluated was prepared in DMSO and diluted with water:acetonitrile (1:1) to a concentration of 1 mM. A working concentration of 100 μM was prepared by further dilution with water:acetonitrile (1:1). To make the preincubation mixture, 2.5 μL of the diluted compound was combined with 75 μL of human liver microsomes at 3.33 mg/mL, and 85 μL of 100 mM potassium phosphate buffer, and this mixture was pre-incubated for 10 min at 37° C. To make the 60 minute mixture without cofactor, 32.5 μL of the preincubation mixture was combined with 17.5 μL of 100 mM potassium phosphate buffer and incubated for 60 min at 37° C. To make the 0 min sample with cofactor (NADPH), 16.25 μL of the preincubation mixture was combined with 200 μL of acetonitrile containing internal standard and 8.75 μL of cofactor (NADPH). To make the incubation mixture, 62 μL of cofactor (2.85 mM) was combined with the remaining incubation mixture, and incubated for 60 min at 37° C. To prepare the sample mixture to be evaluated, 25 μL incubation mixture was combined with 200 μL of acetonitrile containing internal standard and vortexed for 5 min at 1200 rpm, then centrifuged for 10 min at 4000 rpm. The supernatant was diluted 2 fold with water and injected on LC-MS/MS. The sample mixture was evaluated by LC-MS/MS using 10 mM ammonium acetate with 0.100 FA as the aqueous mobile phase, and methanol as the organic mobile phase.
Half-Life Mouse Microsomes:
Compounds were evaluated in mouse liver microsomes following a similar procedure as described above for human liver microsomes. A similar procedure could be used to evaluate compounds in rat liver microsomes.

[2] = system: SREBP; experiment: Reporter Screening Assay (SRE-luciferase reporter, HepG2); assay type: cell-based; settings: Homo sapiens; SRE-luciferase reporter HepG2 cells, 24 hours, 0.01 uM to 10 uM; read-out: I: Reporter Screening Assay (Ave EC50 (nM))
Description: Reporter Screening Assay: This assay was used to evaluate the effect on transcriptional activity SREBP of selected compounds using an SRE-luciferase reporter construct. On day 1, 10,000 cells were seeded in a 96 well (white) plate as per the plate map in Growth media without antibiotics. Cells were incubated at 37° C. for 8 hours. After 8 hours, cells were washed with DPBS for complete removal of FBS. DPBS was completely removed and Growth media was replaced with phenol free treatment medium (90 μl) with different FBS concentrations. The cells were then incubated at 37° C. for 24 hours with varying doses (0.01 uM to 10 uM) of compounds. Then a Luciferase assay was performed.
Reagents for performing Luciferase assay were stored at −20° C. To a tube of lyophilized assay substrate was added 1 mL Substrate Solvent and mixed well. The Substrate tube after reconstitution was covered with aluminum foil so as to keep it protected from light. The assay buffer was thawed to room temperature. To 20 mL Assay Buffer was added 200 μL of reconstituted 100× Substrate and mixed well. The reconstituted substrate as well as the assay solution (buffer+substrate) was protected from light throughout the procedure by keeping it covered with aluminum foil. Using a multi-channel pipette, 100 μL Assay Solution (buffer+substrate) was added directly to each sample well in Plate 1, which was incubated for 30 min (plate was covered with aluminum foil). After 30 min incubation, the plate was read for total luminescence. Each well was read for 2 seconds in a plate luminometer. (Microplate reader Envision Microplate reader from Perkin Elmer). Precaution was taken to incubate plate exactly for 30 min prior to reading on the plate reader.
SREBPv1 Reporter cell line: HepG2—#32251. Growth Medium: MEM (Corning 10-010), 10% FBS, 1% GlutaMax (Invitrogen Catalog #35050061), […] (Invitrogen Catalog # A1113803) and 1% Penicillin-Streptomycin (Pen-Strep). Treatment Media: Phenol-free MEM (Invitrogen Catalog #51200-038) and 1% GlutaMax (Invitrogen Catalog #35050061). Luciferase Assay: LightSwitch Luciferase Assay Kit (Catalog #32032). LDH assay: Pierce LDH Cytotoxicity Assay Kit (Catalog # SD249616).

[3] = Stability in human liver microsomes; assay type: in vitro ADME; settings: 37° C., NADPH
Description: Half-Life Human Microsomes:
as §1

| SMILES | percent parent remaining after 60 min in liver microsomes [1] | EC50 [2] [nM] | percent of compound remaining after 60 min in human liver microsomes [3] |
| --- | --- | --- | --- |
| CC(C)(C)c1cc(-c2csc(-c3ccc(NC(=O)OCCN4CCCC4)cc3Cl)c2)ccn1 [Compound I-8762, 2-(pyrrolidin-1-yl)ethyl (4-(4-(2-(tert-butyl)pyridin-4-yl)thiophen-2-yl)-3-chlorophenyl)carbamate] | + (0-30 = +) | > 500 | +++ (>60.1 = +++) |
| CC(C)(O)c1cc(-c2csc(-c3ccc(NC(=O)OC4CC4)cc3Cl)c2)ccn1 [Compound I-9065, cyclopropyl (3-chloro-4-(4-(2-(2-hydroxypropan-2-yl)pyridin-4-yl)thiophen-2-yl)phenyl)carbamate] | +++ (>60.1 = +++) | > 500 | +++ (>60.1 = +++) |
| CC(C)(CN)c1cc(-c2csc(-c3ccc(NS(C)(=O)=O)cc3Cl)c2)ccn1 [Compound I-9049, N-(4-(4-(2-(1-amino-2-methylpropan-2-yl)pyridin-4-yl)thiophen-2-yl)-3-chlorophenyl)methanesulfonamide] | +++ (>60.1 = +++) | > 500 | +++ (>60.1 = +++) |
| CC(C)(C#N)c1cc(-c2csc(-c3ccc(NS(C)(=O)=O)cc3Cl)c2)ccn1 [Compound I-9039, N-(3-chloro-4-(4-(2-(2-cyanopropan-2-yl)pyridin-4-yl)thiophen-2-yl)phenyl)methanesulfonamide] | +++ (>60.1 = +++) | > 500 | +++ (>60.1 = +++) |
| CC(C)(C)c1cc(-c2csc(-c3ccc(NC(=O)NCCN4CCCC4)cc3Cl)c2)ccn1 [Compound I-8761, 1-(4-(4-(2-(tert-butyl)pyridin-4-yl)thiophen-2-yl)-3-chlorophenyl)-3-(2-(pyrrolidin-1-yl)ethyl)urea] | +++ (>60.1 = +++) | > 500 | +++ (>60.1 = +++) |
| Cc1sc(-c2ccc(NS(C)(=O)=O)cc2Cl)cc1-c1ccnc(CC(C)(C)O)c1 [Compound I-9091, N-(3-chloro-4-(4-(2-(2-hydroxy-2-methylpropyl)pyridin-4-yl)-5-methylthiophen-2-yl)phenyl)methanesulfonamide] | +++ (>60.1 = +++) | > 500 | +++ (>60.1 = +++) |
| O=C(Nc1ccc(-c2cc(-c3ccnc(C4(CO)CC4)c3)cs2)c(Cl)c1)OC1CC1 [Compound I-9082, cyclopropyl (3-chloro-4-(4-(2-(1-(hydroxymethyl)cyclopropyl)pyridin-4-yl)thiophen-2-yl)phenyl)carbamate] | ++ (30.1-60 = ++) | > 500 | +++ (>60.1 = +++) |
| CC(C)(C)c1cc(-c2csc(-c3ccc(S(C)(=O)=O)cc3)c2)ccn1 [Compound I-8723, 2-(tert-butyl)-4-(5-(4-(methylsulfonyl)phenyl)thiophen-3-yl)pyridine] | +++ (>60.1 = +++) | > 500 | +++ (>60.1 = +++) |
| CC(C)(C)c1cc(-c2csc(-c3ccc(S(=O)(=O)CC4CCCC4)cc3)c2)ccn1 [Compound I-8729, 2-(tert-butyl)-4-(5-(4-((cyclopentylmethyl)sulfonyl)phenyl)thiophen-3-yl)pyridine] | + (0-30 = +) | > 500 | + (0-30 = +) |
| CC(C)(O)C(O)c1cc(-c2csc(-c3ccc(NS(C)(=O)=O)cc3Cl)c2)ccn1 (stereo not drawn) [Compound I-9075, N-(3-chloro-4-(4-(2-(1,2-dihydroxy-2-methylpropyl)pyridin-4-yl)thiophen-2-yl)phenyl)methanesulfonamide] | +++ (>60.1 = +++) | > 500 | +++ (>60.1 = +++) |
| CC(C)OC(=O)Nc1ccc(-c2cc(-c3ccnc(CC(C)(C)O)c3)cs2)c(Cl)c1 [Compound I-9051, isopropyl (3-chloro-4-(4-(2-(2-hydroxy-2-methylpropyl)pyridin-4-yl)thiophen-2-yl)phenyl)carbamate] | +++ (>60.1 = +++) | > 500 | +++ (>60.1 = +++) |

Continued, values first:

| percent parent remaining after 60 min in liver microsomes [1] | EC50 [2] [nM] | percent of compound remaining after 60 min in human liver microsomes [3] | SMILES |
| --- | --- | --- | --- |
| +++ (>60.1 = +++) | < 249 | ++ (30.1-60 = ++) | CN(c1ccc(-c2cc(-c3ccnc(C4(CO)CC4)c3)cs2)c(Cl)c1)S(C)(=O)=O [Compound I-9056, N-(3-chloro-4-(4-(2-(1-(hydroxymethyl)cyclopropyl)pyridin-4-yl)thiophen-2-yl)phenyl)-N-methylmethanesulfonamide] |
| +++ (>60.1 = +++) | 250 to 500 | +++ (>60.1 = +++) | CC(C)OC(=O)Nc1ccc(-c2cc(-c3ccnc(C(C)(C)CO)c3)cs2)c(Cl)c1 [Compound I-8907, Isopropyl (3-chloro-4-(4-(2-(1-hydroxy-2-methylpropan-2-yl)pyridin-4-yl)thiophen-2-yl)phenyl)carbamate] |
| +++ (>60.1 = +++) | < 249 | +++ (>60.1 = +++) | CC(C)OC(=O)Nc1ccc(-c2cc(-c3ccnc4c3OCCO4)cs2)c(Cl)c1 [Compound I-9062, isopropyl (3-chloro-4-(4-(2,3-dihydro-[1,4]dioxino[2,3-b]pyridin-8-yl)thiophen-2-yl)phenyl)carbamate] |
| +++ (>60.1 = +++) | 250 to 500 | +++ (>60.1 = +++) | CCOC(=O)Nc1ccc(-c2cc(-c3ccnc(C(C)(C)C)c3)cs2)c(Cl)c1 [Compound I-8735, Ethyl (4-(4-(2-(tert-butyl)pyridin-4-yl)thiophen-2-yl)-3-chlorophenyl)carbamate] |
| +++ (>60.1 = +++) | < 249 | +++ (>60.1 = +++) | CC(C)OC(=O)Nc1ccc(-c2cc(-c3ccnc(C4(CO)CC4)c3)cs2)c(Cl)c1 [Compound I-8980, Isopropyl (3-chloro-4-(4-(2-(1-(hydroxymethyl)cyclopropyl)pyridin-4-yl)thiophen-2-yl)phenyl)carbamate] |
| +++ (>60.1 = +++) | < 249 | +++ (>60.1 = +++) | CS(=O)(=O)Nc1ccc(-c2cc(-c3ccnc(C4(CO)CC4)c3)cs2)c(Cl)c1 [Compound I-9002, N-(3-chloro-4-(4-(2-(1-(hydroxymethyl)cyclopropyl)pyridin-4-yl)thiophen-2-yl)phenyl)methanesulfonamide] |
| ++ (30.1-60 = ++) | < 249 | ++ (30.1-60 = ++) | CC(C)NC(=O)Nc1ccc(-c2cc(-c3ccnc(C(C)(C)C)c3)cs2)c(Cl)c1 [Compound I-8731, 1-(4-(4-(2-(tert-butyl)pyridin-4-yl)thiophen-2-yl)-3-chlorophenyl)-3-isopropylurea] |
